The values below come from patent US20060223768A1, “Regulation of gene expression” (priority 2003, published 2006).

The test system of one experiment is HCT116 p53+/+ cells. The experiment in a line: Apoptosis (annexin V FACS, DNA laddering, phase contrast) in HCT116 p53+/+ cells. It counts as cell-based, human.
Another experiment has as its system HCT116 p53−/− cells. The experiment in a line: Apoptosis (annexin V FACS, DNA laddering, phase contrast) in HCT116 p53−/− cells. It counts as cell-based, human. The following applies: sulindac sulphide 120 μM, 24 and 48 hr. As for the experimental part:
HCT116 clones were cultured in DMEM with 10% FCS. All the cell clones were cultured with penicillin 100 units ml^−1 and streptomycin 100 μg ml^−1 at 37° C. in 5% CO2 in air. Other human colorectal cancer cells lines, also defective for DNA mismatch repair (see Branch et al., 1995), were:- LoVo and RKO (p53 wild type); DLD1, LS174T, SW48 and HT29 (all p53 mutant). For transfection the cells were trypsinised and sub-cultured into 6 well plates (10 cm^2) without antibiotics, 1.5×10^5 cells per well. Selected 21-nucleotide RNAs were synthesised and BPLC purified (MWG; Germany) and annealed into siRNA duplexes according to the instructions supplied. 24 h after sub-culture the cells were transfected with siRNA formulated into liposomes (Oligofectamine, Life Technologies) according to the manufacturer's instructions. […] The final volume of culture medium was 1.5 ml per well. Cells were harvested for analysis at various times thereafter as indicated in the results. Each experiment with HCT116 cells was carried out four or more times. Transfection efficiencies were established by transfecting with liposomes containing FITC-dextran (Jiang and Milner, 2002). […]
Cell growth curves were determined by cell counting. […] The fixed cells were pelleted, washed in PBS and resuspended in PBS containing 0.1 μg/ml propidium iodide with 200 U/ml RNase A and analysed by FACS. […]

In the case of `O=c1[nH]cc(F)c(=O)[nH]1` [5′ FU, 5-fluorouracil], in the experiment on HCT116 p53+/+ cells (HCT116 cells, Zhang et al., 2000 and results not shown), the “apoptosis by agents that activate p53” value is listed as “induced”.
On to `CC1=C(CC(=O)O)c2cc(F)ccc2/C1=C\c1ccc([S+](C)[O-])cc1` (stereo not drawn) [Sulindac, sulindac], for which the “apoptosis induced by treatment with sulindac” value with HCT116 p53−/− cells is “induced apoptosis”; in the experiment with HCT116 p53+/+ cells (p53+/+ cells, sulindac sulphide 120 μM, 24 and 48 hr) it was “induced apoptosis”.
